Where two headings read alike, the source gives them in different places.
How the values were obtained:
[1] = Plasma pharmacokinetics of selumetinib and N-desmethyl selumetinib on day 1 of cycle 1; assay type: in vivo, human
Description: Additional predose samples were collected on days 1 and 14 of cycle 2 and on days 1 and 14 of cycle 5.
(§1) No formal hypothesis testing was planned.

[2] = tested on: patients with advanced or metastatic solid tumors; assay: Dose-limiting toxicities during first 21 days, phase 1b MK-5618-001; assay type: in vivo, human; settings: selumetinib twice daily 2 weeks on/1 week off in combination with pembrolizumab
Description: At least 3 patients were enrolled at each dose level; the modified toxicity probability interval (mTPI) design, with a target dose-limiting toxicity (DLT) rate of ~30%, was used to identify a potential maximum tolerated dose. Dose escalation and de-escalation decisions were based on the mTPI design and were dependent on the number of patients enrolled and number of DLTs observed at the particular dose level (Online Resource 1). Dose finding was considered complete after 14 patients were enrolled at any of the tested dose levels and the decision was made to stay at that dose level.
as §1
Any treatment-related toxicity that causes the patient to discontinue treatment during cycle 1 […]
Cardiac disorders including
• Absolute decrease in left ventricular ejection fraction >10% compared with baseline and below the institution’s lower limit of normal • Grade ≥3 left ventricular systolic dysfunction
• Other cardiac disorders grade ≥3
Vascular disorders including
• Grade ≥3 hypertension requiring >1 drug or more intensive therapy […]
assessment. […] The occurrence of any of the toxicities listed in this table was considered a dose-limiting toxicity if assessed by the investigator to be possibly, probably , or definitely related

Observed t1/2, range across dose levels ([1]; human, in vivo) [h]	SMILES	half-life ([1]; human, in vivo, day 1 of cycle 1, selumetinib 50-125 mg, read-out: Observed t1/2, range across dose levels) [h]	half-life ([1]; human, in vivo, plasma, day 1 of cycle 1, Selumetinib 125 mg + Pembrolizumab 200 mg, n = 11, geometric mean (% geometric CV), read-out: t1/2 (converted)) [h]	AUC0‒last ([1]; plasma, day 1 of cycle 1, Selumetinib 125 mg + Pembrolizumab 200 mg, n = 14, geometric mean (% geometric CV))	Maximum tolerable dose level [2]
3.07 to 3.94	O=C(NOCCO)c1cc2nc[nH]c2c(F)c1Nc1ccc(Br)cc1Cl [N-Desmethyl selumetinib, N-desmethyl selumetinib]				
	Cn1cnc2c(F)c(Nc3ccc(Br)cc3Cl)c(C(=O)NOCCO)cc21 [Selumetinib, selumetinib]	2.82 to 3.82	2.82	4430 (57.6) h · ng/mL	exceeds 125 mg
